Measurements from patent publication US8895282B2, “Use of a substance for manufacturing of a medicament for treatment of common cold” (Tanomed AB, priority 2008, dated 2014).
Several values for one entry are separate records, joined by “and”; a condition that tells them apart may be missing. Identical values can stand only once. Like-named read-outs stand apart in the source and are kept apart here.

Tests used:
[1] = tested on: Rhinovirus 7; conditions: b7: RV7 preincubated 30 min with 0.01% hydrogen peroxide, then catalase
Description: (§1) Virus concentration=dil 2. Incubation during 30 min in heater keeping 37° C. After 30 min the effect of the hydrogen peroxide is aborted with the addition of 0.1 ml catalase solution into the vial (=1 kU/ml). • 0.7 ml 5% glucose solution+0.1 ml dil 1 of RV7 (=a7) or RV8 (=a8)+0.1 ml of the hydrogen peroxide solution (=final concentration in the vial=[…]). Incubation and abortion of the hydrogen peroxide effect similar as in a).
(§2) Altogether 4 vials (Eppendorff): a7, a8, b7 and b8.
(§3) After the addition of catalase, samples are transferred to a 96-well plate with flat bottom according to table 3.

[2] = tested on: Rhinovirus 8; conditions: 50 μl b8: RV8 preincubated 30 min with 0.01% hydrogen peroxide, then catalase
Description: as §1, §2, §3

[3] = tested on: WI 38 cells
Description: as §1, §3

[4] = tested on: WI 38 cells; remark: listed apart in the source
Description: (§4) Cell culture: Human lung cell fibroblasts (WI 38, ATCC-CCL-75) was used for cytopathic effect detection. 10-fold serial dilutions had been made from the concentrated viral suspension. […] Then the media was changed to RPMI with 2% of fetal calf serum, which was preserved during the assay. The cells were incubated in CO2enriched air at 37° C. During the experiments a cell culture of 17th-18^thpassage was used.
(§5) In table 1 the content of each of the 10 vials (Eppendorf) is listed. The vials were incubated in a heater keeping a stable temperature of 37° C. 1000 U of catalase was added after 15, 30 and 60 min of incubation. 2×50 μl from each vial was transferred to duplicate cell wells (a 96-well plate).

[5] = tested on: Rhinovirus 7
Description: Virus: Rhinovirus 7, purchased from ATCC (VR-1117), was used as a representative for the rhinovirus group. In the assays the dilutions 10^−2 and 10^−3 were used. […] 0.3 ml of each dilution was added into the vials.
as §4
Catalase: From Sigma-Aldrich™. A solution of 100 000 U/ml was prepared from the original solution of 10^6 U/ml.
H2O2: a 20% solution was diluted in Phosphate buffered saline (PBS) to a 0.5% and a 0.05% solution. 0.1 ml was added to the vials, which means 0.05% or 0.005% in the vials.
A solution of 200 U/ml and 600 U/ml was prepared from the original solution of 6000 U/ml.
In order to evaluate whether the effect of the hydrogen peroxide was a direct effect on the virus itself or a cytoprotective effect, we preincubated the virus with the hydrogen peroxide, before it was transferred to the wells with the cells. The WI 38 cells are also sensitive to hydrogen peroxide, and therefore it was necessary to add catalase before inoculation into the wells. […] This design would also reveal if the inhibitory effect was only a virostatic one, or if it could damage the virions irreversibly.
as §5

[6] = 0.005% H2O2, RV 7 dil 10^−2, preincubation 15 min
[7] = 0.005% H2O2, RV 7 dil 10^−2, preincubation 30 min
[8] = 0.005% H2O2, RV 7 dil 10^−2, preincubation 60 min
[9] = 0.005% H2O2, RV 7 dil 10^−3, preincubation 15 min
[10] = 0.005% H2O2, RV 7 dil 10^−3, preincubation 30 min
[11] = 0.005% H2O2, RV 7 dil 10^−3, preincubation 60 min
[12] = 0.05% H2O2, RV 7 dil 10^−2, preincubation 15 min
[13] = 0.05% H2O2, RV 7 dil 10^−2, preincubation 30 min
[14] = 0.05% H2O2, RV 7 dil 10^−2, preincubation 60 min
[15] = 0.05% H2O2, RV 7 dil 10^−3, preincubation 15 min
[16] = 0.05% H2O2, RV 7 dil 10^−3, preincubation 30 min
[17] = 0.05% H2O2, RV 7 dil 10^−3, preincubation 60 min

OO [H2O2, hydrogen peroxide]
Infection of WI 38 cells after 2 days of inoculation [1]: 1+
Infection of WI 38 cells after 10 days of inoculation [1]: 1+ and 2+
Infection of WI 38 cells after 2 days of inoculation [2]: 1+
Infection of WI 38 cells after 10 days of inoculation [2]: 3+
Effect on WI 38 cells after 2 days [3]: Tox
Effect on WI 38 cells after 10 days [3]: tox
Day 3 (toxic effect on WI 38 cells, control) [4]: TOX
Day 5 (toxic effect on WI 38 cells, control) [4]: TOX
Day 7 (toxic effect on WI 38 cells, control) [4]: TOX
Toxic effect on WI 38 cells [4]: severe toxic effect
Inactivation of RV 7 ([5]; 0.005% (2 mM) hydrogen peroxide, higher concentration of RV 7): not able to inactivate
Day 3 (cytopathic effect of RV 7 on WI 38 cells) [5, 6]: +
Day 5 (cytopathic effect of RV 7 on WI 38 cells) [5, 6]: ++
Day 7 (cytopathic effect of RV 7 on WI 38 cells) [5, 6]: ++
Day 3 (cytopathic effect of RV 7 on WI 38 cells) [5, 7]: +
Day 5 (cytopathic effect of RV 7 on WI 38 cells) [5, 7]: +
Day 7 (cytopathic effect of RV 7 on WI 38 cells) [5, 7]: ++
Day 3 (cytopathic effect of RV 7 on WI 38 cells) [5, 8]: +
Day 5 (cytopathic effect of RV 7 on WI 38 cells) [5, 8]: +
Day 7 (cytopathic effect of RV 7 on WI 38 cells) [5, 8]: +
Day 3 (cytopathic effect of RV 7 on WI 38 cells) [5, 9]: −
Day 5 (cytopathic effect of RV 7 on WI 38 cells) [5, 9]: +
Day 7 (cytopathic effect of RV 7 on WI 38 cells) [5, 9]: +
Day 3 (cytopathic effect of RV 7 on WI 38 cells) [5, 10]: −
Day 5 (cytopathic effect of RV 7 on WI 38 cells) [5, 10]: −
Day 7 (cytopathic effect of RV 7 on WI 38 cells) [5, 10]: −
Day 3 (cytopathic effect of RV 7 on WI 38 cells) [5, 11]: −
Day 5 (cytopathic effect of RV 7 on WI 38 cells) [5, 11]: −
Day 7 (cytopathic effect of RV 7 on WI 38 cells) [5, 11]: −
Inactivation of RV 7 ([5]; 0.005% hydrogen peroxide, 60 min of incubation, RV 7 10^−3 dilution): able to inactivate
Inactivation of RV 7 ([5]; 0.05% (20 mM) H2O2, all RV 7 concentrations, already after 15 min of incubation): able to inactivate
Day 3 (cytopathic effect of RV 7 on WI 38 cells) [5, 12]: −
Day 5 (cytopathic effect of RV 7 on WI 38 cells) [5, 12]: −
Day 7 (cytopathic effect of RV 7 on WI 38 cells) [5, 12]: −
Day 3 (cytopathic effect of RV 7 on WI 38 cells) [5, 13]: −
Day 5 (cytopathic effect of RV 7 on WI 38 cells) [5, 13]: −
Day 7 (cytopathic effect of RV 7 on WI 38 cells) [5, 13]: −
Day 3 (cytopathic effect of RV 7 on WI 38 cells) [5, 14]: −
Day 5 (cytopathic effect of RV 7 on WI 38 cells) [5, 14]: −
Day 7 (cytopathic effect of RV 7 on WI 38 cells) [5, 14]: −
Day 3 (cytopathic effect of RV 7 on WI 38 cells) [5, 15]: −
Day 5 (cytopathic effect of RV 7 on WI 38 cells) [5, 15]: −
Day 7 (cytopathic effect of RV 7 on WI 38 cells) [5, 15]: −
Day 3 (cytopathic effect of RV 7 on WI 38 cells) [5, 16]: −
Day 5 (cytopathic effect of RV 7 on WI 38 cells) [5, 16]: −
Day 7 (cytopathic effect of RV 7 on WI 38 cells) [5, 16]: −
Day 3 (cytopathic effect of RV 7 on WI 38 cells) [5, 17]: −
Day 5 (cytopathic effect of RV 7 on WI 38 cells) [5, 17]: −
Day 7 (cytopathic effect of RV 7 on WI 38 cells) [5, 17]: −
Reversibility of the inactivation of RV 7 ([5]; Glucose Oxidase or 0.05% hydrogen peroxide solution, 7 days of incubation, no sign of recovery): irreversible

B1: Catalase: specific enzyme catalyzing the conversion of H2O2 into O2 and H2O; purified from human erythrocytes (protein, UniProt P04040 2-527, looked up)
Catalase: ADSRDPASDQMQHWKEQRAAQKADVLTTGAGNPVGDKLNVITVGPRGPLLVQDVVFTDEMAHFDRERIPERVVHAKGAGAFGYFEVTHDITKYSKAKVFEHIGKKTPIAVRFSTVAGESGSADTVRDPRGFAVKFYTEDGNWDLVGNNTPIFFIRDPILFPSFIHSQKRNPQTHLKDPDMVWDFWSLRPESLHQVSFLFSDRGIPDGHRHMNGYGSHTFKLVNANGEAVYCKFHYKTDQGIKNLSVEDAARLSQEDPDYGIRDLFNAIATGKYPSWTFYIQVMTFNQAETFPFNPFDLTKVWPHKDYPLIPVGKLVLNRNPVNYFAEVEQIAFDPSNMPPGIEASPDKMLQGRLFAYPDTHRHRLGPNYLHIPVNCPYRARVANYQRDGPMCMQDNQGGAPNYYPNSFGAPEQQPSALEHSIQYSGEVRRFNTANDDNVTQVRAFYVNVLNEEQRKRLCENIAGHLKDAQIFIQKKAVKNFTEVHPDYGSHIQALLDKYNAEKPKNAIHTFVQSGSHLAAREKANL
Effect on WI 38 cells after 2 days [3]: 0
Effect on WI 38 cells after 10 days [3]: 0
